Experimental data published in patent US20150080234A1, “Cell Patterning” (priority 2013, published 2015).

What was measured:
[1] = test system: GHOST cells; assay: cell pattern maintenance / cell migration inhibition assay (media additives and hydrogels); assay type: cell-based
Method: One significant advantage afforded by WAP is the ability to an addressable link with stimuli with delayed signal development in cells, such as infection, proliferation, or migration. For implementation of the nano-neutralization assay, a technique for preventing pattern disruption was developed over time due to proliferation and migration of GHOST cells over the course of infection signal development. The effect of several media additives and hydrogels for the maintenance of patterns was tested.
Cell patterns were formed as described above. Arrays were imaged at 0, 24, and 48 hrs immediately after addition of 1 μM calcein AM live cell stain (Life Technologies) in PBS. Media additives were diluted directly into culture media at the indicated concentration. Cell proliferation (P) was calculated per block (4 wells per block) as the ratio of cells at time of imaging to the number of starting cells at time zero. Cell migration (M) was calculated as Nfull×P−Nwell, where Nfull is the number of cells per field of view, P is the proliferation rate, and Nwell is the number of cells per well.

[2] = test system: cell motility; conditions: cited from earlier work
[3] = target: CCR5 (Homo sapiens, UniProt P51681); conditions: lowers the effective CCR5 concentration; cited from earlier work
[4] = test system: ACH2 cells; assay: virus production by ACH2 cells in micro-wells detected by WAP; assay type: cell-based; conditions: ACH2 cells stimulated vs unstimulated, all loading densities, FIG. 6(b)
Method: FIGS. 6(a)-(b) illustrate one embodiment of detection/analysis of latently infected T cells using WAP. That is, as shown, WAP can be applied to study functional characteristics, such as virus production, of cells loaded into micro-wells. ACH2 cells produce HIV virus when stimulated with the cytokine TNFα. […] These cells produce virus when stimulated with TNFα, which can be contained in the media. The target cell coated slide is incubated with the array, removed, then allowed to incubate while biological signal develops (e.g. GFP accumulation). […] The median percent infection is higher in the presence of TNFα for each ACH2 cell count. In addition to assaying viral production capability, functional characteristics of virus producing cells in the micro-wells, such as gene expression, surface marker expression, or secretion of biomolecules of interest could provide functional information about virally infected cells.

Chain of CCR5 (P51681 whole entry): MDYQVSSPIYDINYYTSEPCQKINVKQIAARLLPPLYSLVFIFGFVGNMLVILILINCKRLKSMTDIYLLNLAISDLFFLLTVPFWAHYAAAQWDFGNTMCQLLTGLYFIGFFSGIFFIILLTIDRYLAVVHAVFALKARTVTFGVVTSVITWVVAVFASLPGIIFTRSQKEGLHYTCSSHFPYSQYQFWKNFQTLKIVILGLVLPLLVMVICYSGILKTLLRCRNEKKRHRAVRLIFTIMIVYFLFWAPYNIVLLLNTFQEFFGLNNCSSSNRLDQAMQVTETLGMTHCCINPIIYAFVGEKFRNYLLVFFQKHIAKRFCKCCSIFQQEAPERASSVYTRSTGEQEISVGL

## CS(=O)(=O)c1cccc(CNc2nc(Nc3ccc4c(c3)CCC(=O)N4)ncc2C(F)(F)F)c1 [PF-573228]
[1]; 10 μM
  individual pattern maintenance for the time required for signal development: resulted in individual pattern maintenance
[1]; FIG. 15(b), 24 or 48 hours
  proliferation of patterned cells (Nt/Nto per block): reduced proliferation of patterned cells
[1]; FIG. 15(c), p<0.0001 Mann-Whitney U test
  migration of patterned cells (number of cells migrating out of patterns): reduced migration of patterned cells
[1]; added to media, 0 hr vs 24 hrs post patterning, FIG. 9(f)
  loss of cell patterns: prevents loss of cell patterns
[2]
  effect on cell motility and adhesion: inhibit cell motility but not adhesion

## Cc1ccc(-c2ccc3c(c2)C=C(C(=O)Nc2ccc(C[N+](C)(C)C4CCOCC4)cc2)CCC3)cc1.[Cl-] [TAK779]
[3]
  effect on HIV-1 entry: slows HIV-1 entry

## C[C@@H](N)[C@H]1CC[C@H](C(=O)Nc2ccncc2)CC1 [Y-27632]
[2]
  effect on cell motility and adhesion: inhibit cell motility but not adhesion

## TNFα
[4]
  median percent infection of patterned cells: greater median percent infection
